Assay results taken from patent publication US9980936B2, “BH4 antagonists and methods related thereto” (Emory University, priority 2014, dated 2018).
“Also recorded” adds a separate entry of the source.

What was measured:
[1] = tested on: H460 or DMS53 cells expressing Bcl2 shRNA transfected with AAAA Bcl2 mutant; test: rescue of Bcl2-silenced cells with AAAA Bcl2 mutant; assay type: cell-based; conditions: 72 h
From the text: (§1) Whether expression of exogenous Bcl2 can restore the sensitivity of Bcl2-silenced lung cancer cells to BDA-2 and whether the BDA-2/BH4 binding is important for such effect was examined. WT and BDA-2 binding deficient D10A/N11A/R12A/E13A (AAAA) Bcl2 mutant cDNA in pCIneo or vector-only control were transfected into H460 or DMS53 cells expressing Bcl2 shRNA. It has been reported that if the shRNA is directed to the 3′ UTR or 5′ UTR of the gene, the effect of the shRNA1 can be rescued by ectopically expressing the protein using the wild-type or mutant cDNA. Because Bcl2 shRNA1 targets the 5′UTR of endogenous Bcl2, the silencing effect of shRNA1 on Bcl2 expression could be rescued by transfection of exogenous WT or AAAA Bcl2 mutant. After transfection, cells were treated with BDA-2 or the BH3 mimetic ABT-199 at the indicated concentrations for 72 h. […] The apoptotic effect of BDA-2 on lung cancer cells requires its BH4 binding.

[2] = tested on: H460 or DMS53 cells expressing Bcl2 shRNA transfected with WT Bcl2; test: rescue of Bcl2-silenced cells with exogenous WT Bcl2; assay type: cell-based; conditions: 72 h
From the text: as §1

[3] = tested on: Bcl2 in tumor tissues of NSCLC patients; test: Bcl2 expression by IHC in tumor tissue of treated NSCLC patients; assay type: in vivo, human; conditions: 5 or 10 mg/day for 28 days, 10 NSCLC patients
Experimental: To test whether a similar effect of RAD001 on Bcl2 expression occurs in patients Bcl2 expression was analyzed by IHC in baseline and post-treatment tissue samples obtained from 10 NSCLC patients treated with RAD001 (5 or 10 mg/day) for 28 days as part of a neoadjuvant clinical study of everolimus in patients with resectable NSCLC. […] Thus, inhibition of Bcl2 may enhance the potency of mTOR inhibitor against lung cancer.

H460 cells [4] = test: SRB cell growth assay, combination with mTOR inhibitor; assay type: cell-based, human; conditions: BDA-366 100 nM, RAD001 1 nM, alone or in combination, 72 hr
Experimental: Cell growth was analyzed by sulforhodamine B (SRB) colorimetric assay.

H460 cells [5] = test: Bcl2 expression after mTOR inhibition (Western blot); assay type: cell-based; conditions: increasing concentrations, 24 hr
Experimental: (§2) A549 or H460 cells were treated with increasing concentrations of RAD001 for 24 h. Bcl2 and p-P70S6K were analyzed by Western blot.
(§3) Rapamycin and its derivative RAD001 (i.e. everolimus) are potent allosteric inhibitors of mTOR. […] Previous reports indicate that expression of Bcl2 is associated with resistance of cancer cells to mTOR inhibitors. To further test whether mTOR inhibition regulates Bcl2 expression, A549 and H460 cells were treated with increasing concentrations of RAD001 for 24 hr.

A549 cells = test: as above; assay type: cell-based; conditions: increasing concentrations, 24 hr
Experimental: as §2, §3

[6] = target: purified, human Bcl2 protein (Homo sapiens, UniProt P10415); test: in vitro cell-free Bcl2 conformational change assay (IP with anti-Bcl2/BH3 domain antibody); assay type: biochemical
Experimental: To test whether BDA-2 directly induces Bcl2 conformational change, an in vitro cell-free assay was employed. Purified recombinant Bcl2 protein was incubated with increasing concentrations of BDA-2 in lysis buffer, followed by immunoprecipitation (IP) using the anti-Bcl2/BH3 domain antibody.

Plasmid pUC19 DNA = test: electrophoretic mobility shift assay (EMSA); assay type: binding
Experimental: To test whether BDA-2 reacts with DNA as a crosslinker, electrophoretic mobility shift assay (EMSA) was performed. Cisplatin, a known DNA binding agent, was used as positive control. Plasmid pUC19 DNA was incubated with BDA-2 or cisplatin.

purified recombinant Bax = test: cell-free Bax activation (IP using 6A7 Bax antibody); assay type: biochemical; conditions: without Bcl2
Experimental: BDA-366-induced Bcl2 conformational change was also confirmed by immunofluorescence using a Bcl2/BH3-domain specific antibody. […] To test this possibility, a 6A7 Bax antibody that only recognizes the conformationally changed, active, form of Bax was employed. Purified Bcl2 was treated with BDA-366 in lysis buffer for 1 h. The mixture of Bcl2/BDA-2 was then incubated with purified recombinant Bax for another 2 h, followed by IP using 6A7 antibody.
To further test whether the BH3 domain of Bcl2 is important for BDA-366 activation of Bax, purified recombinant WT and the BH3 deletion (ΔBH3) mutant Bcl2 proteins were incubated with purified Bax protein in the absence or presence of BDA-366, followed by IP with 6A7 antibody. […] To test this at the cellular or mitochondrial level, WT, ΔBH3 Bcl2 mutant and empty vector (pCIneo) were transfected into H1299 cells that express undetectable levels of endogenous Bcl2 but high levels of endogenous Bax. Cells or isolated mitochondria from these cells were treated with BDA-2, followed by IP with Bcl2 BH3 or 6A7 antibody, respectively.

Sequence of purified, human Bcl2 protein (P10415 whole entry, the tested form may be a part): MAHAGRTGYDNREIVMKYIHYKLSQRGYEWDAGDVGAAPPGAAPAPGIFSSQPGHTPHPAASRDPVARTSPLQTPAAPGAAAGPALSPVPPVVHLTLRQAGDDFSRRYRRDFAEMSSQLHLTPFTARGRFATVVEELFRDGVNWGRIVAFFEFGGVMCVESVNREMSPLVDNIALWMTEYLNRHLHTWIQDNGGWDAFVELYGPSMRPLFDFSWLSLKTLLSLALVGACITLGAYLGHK

Question: `CC1(C)CCC(CN2CCN(c3ccc(C(=O)NS(=O)(=O)c4ccc(NCC5CCOCC5)c([N+](=O)[O-])c4)c(Oc4cnc5[nH]ccc5c4)c3)CC2)=C(c2ccc(Cl)cc2)C1` [ABT-199, reference compound] was tested. Which “sensitivity of cells restored after expression of AAAA Bcl2” value [1] did it give?
Answer: restored the sensitivity

Question: What about the “sensitivity of cells after expression of exogenous WT Bcl2” value [2] of the same compound?
Answer: restored sensitivity

Question: What does the source list for `CO[C@H]1C[C@@H]2CC[C@@H](C)[C@@](O)(O2)C(=O)C(=O)N2CCCC[C@H]2C(=O)O[C@H]([C@H](C)C[C@@H]2CC[C@@H](OCCO)[C@H](OC)C2)CC(=O)[C@H](C)/C=C(\C)[C@@H](O)[C@@H](OC)C(=O)[C@H](C)C[C@H](C)/C=C/C=C/C=C/1C` [RAD001]?
Answer: Bcl2 expression in post-treatment tumor tissues compared to baseline [3]: increased expression of Bcl2; cell growth inhibition (H460 cells [4]): partially inhibited lung cancer cell growth; Bcl2 expression (H460 cells [5]): up-regulation of Bcl2 in a dose-dependent manner; also recorded: up-regulates Bcl2; Bcl2 expression (A549 cells): up-regulation of Bcl2 in a dose-dependent manner; also recorded: up-regulates Bcl2

Question: Which “direct induction of Bcl2 conformational change (BH3 exposure)” value [6] does the source give for `COc1cc([C@@H]2c3cc4c(cc3[C@@H](O[C@@H]3O[C@@H]5CO[C@@H](C)O[C@H]5[C@H](O)[C@H]3O)[C@H]3COC(=O)[C@H]23)OCO4)cc(OC)c1O` [VP-16] here?
Answer: not

Question: Which results are given for `N.N.[Cl][Pt][Cl]` [cisplatin, reference compound]?
Answer: binding to pUC19 DNA causing mobility shift (Plasmid pUC19 DNA): can bind to pUC19 DNA to cause mobility shift; direct induction of Bcl2 conformational change (BH3 exposure) [6]: not

Question: Which Bcl-2/Bcl-XL expression (lung cancer cells) does the source give for `C#Cc1cccc(Nc2ncnc3cc(OCCOC)c(OCCOC)cc23)c1` [erlotinib, N-(3-ethynylphenyl)-6,7-bis(2-methoxyethoxy)quinazolin-4-amine] here?
Answer: up-regulation of Bcl-2/Bcl-XL

Question: How did the “direct activation of Bax” value (purified recombinant Bax) turn out when BAM7 [reference compound] was run?
Answer: can directly activate Bax
